The test system of one series is Apis mellifera. The note with it: acute, mortality.
The test system of the next series is Bibionidae. The settings on record: chronic/long-term; duration: 28 days.
In a further series the test system is Daphnia magna. The settings on record: chronic/long-term; duration: 21 days; reproduction.
A further series relates to Folsomia candida. The settings on record: chronic/long-term.
The test system of a further series is Hypoaspis aculeifer. The settings on record: chronic/long-term.
In the next series the test system is Pimephales promelas. The settings on record: chronic/long-term; duration: 33 days; other.
The test system of a further series is Aphidius rhopalosiphi. Kind of series: LR50; higher = less toxic. The note with it: not reported; mortality.
The subject of another series is Typhlodromus pyri. Put plainly: LR50; higher = less toxic. The note with it: not reported; mortality.

Experimental findings from EPA's ToxValDB 9.5 (doi:10.2903/j.efsa.2015.4032) are described below.

SMILES strings stand for the structures. A value given as a limit tells only on which side of the number the result lay.

Take `Cc1cccc2sc3nncn3c12` [2,7,8,9-Tricyclazole]: the LD50 in the series on Apis mellifera (dermal) is greater than 99 µg/piece; with Apis mellifera (oral, unspecified), 30.9 µg/piece; in the series with Colinus virginianus (acute, oral), greater than 2180 mg/kg-day; in the series on Rattus norvegicus (acute, oral, F, mortality), 237 mg/kg-day. The NOEC in the series on Bibionidae was found to be 1.68 mg/L; with Daphnia magna, 1.3 mg/L; with Folsomia candida, 32 mg/kg; with Hypoaspis aculeifer it was 16 mg/kg; with Pimephales promelas, 0.743 mg/L; with Tagia sp. (chronic/long-term), 250 mg/kg. The LC50 with Colinus virginianus (acute, oral, diet) is greater than 1140 mg/kg-day; in the series on Tagia sp. (acute, duration: 14 days, mortality) it was greater than 1000 mg/kg. Besides, the results for the NOAEL with Colinus virginianus (reproduction developmental) and in the series on Rattus norvegicus (chronic) were 27.1 mg/kg-day and 5 mg/kg-day, respectively. For the same compound, the LR50 in the series on Aphidius rhopalosiphi is less than 460 g/ha; with Typhlodromus pyri it was greater than 460 g/ha.

By NOAEL is commonly meant the highest tested level that showed no adverse finding.
